What was measured:
[1] = target: Cyclin-dependent kinase 2/G1/S-specific cyclin-E1 (Homo sapiens, UniProt P24941); experiment: Biochemical CDK Inhibition Assay
Experimental: (§1) nhibitory effects of the compounds of the disclosure were measured in biochemical assays that measure the enzymatic phosphorylation activity of CDK enzyme in complex of Cyclin proteins phosphorylates 7.5 micromolar fluorescently labelled peptide substrate, 5-FAM-QSPKKG-CONH2, (FL-Peptide 18, Perkin Elmer, 760362) in the presence of adenosine-5′-triphosphate (ATP) and varying concentrations of the test compound in 100 mM 2-[4-(2-hydroxyethyl)piperazin-1-yl]ethanesulfonic acid (HEPES), pH 7.5, 10 mM MgCl2, 0.015% Brij-35, 1 mM dithiothreitol (DTT), 1.0% dimethylsulfoxide (DMSO). Assays were performed at 1.0 mM ATP or at ATP Km of the CDK enzymes in complex with Cyclin proteins. Reactions proceeded until between 10% to 20% total peptides were phosphorylated at room temperature (25° C.) and were terminated with 35 mM 2,2′,2″,2′″-(ethane-1,2-diyldinitrilo)tetraacetic acid (EDTA). Product was detected using the Caliper mobility shift detection method where the phosphorylated peptide (product) and substrate were electrophoretically separated and measured. Percent activity was plotted against log concentration of compound and points to generate an apparent IC50. The following CDK enzymes in complex with different cyclin proteins were used in these assays:CDK1/Cyclin B1, GST-tag (BPS, 40454), 1.5 nM used in the assayCDK2/Cyclin E (Eurofins, 14-475), 1.25 nM used in the assays

[2] = target: Cyclin-dependent kinase/G2/mitotic-specific cyclin- 1 (Homo sapiens, UniProt P06493); experiment: Biochemical CDK Inhibition Assay
Experimental: as §1

Cyclin-dependent kinase/G2/mitotic-specific cyclin- 1, sequence (P06493 whole entry): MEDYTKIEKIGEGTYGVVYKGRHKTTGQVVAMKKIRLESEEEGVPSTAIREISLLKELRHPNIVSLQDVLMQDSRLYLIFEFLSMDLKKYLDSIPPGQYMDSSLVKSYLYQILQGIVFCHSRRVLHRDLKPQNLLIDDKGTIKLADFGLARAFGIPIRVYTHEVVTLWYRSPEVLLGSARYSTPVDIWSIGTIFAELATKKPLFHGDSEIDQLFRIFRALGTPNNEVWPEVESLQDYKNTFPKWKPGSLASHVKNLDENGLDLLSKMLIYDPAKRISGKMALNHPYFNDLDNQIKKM
Cyclin-dependent kinase/G2/mitotic-specific cyclin- 1, sequence (P14635 whole entry, further chain): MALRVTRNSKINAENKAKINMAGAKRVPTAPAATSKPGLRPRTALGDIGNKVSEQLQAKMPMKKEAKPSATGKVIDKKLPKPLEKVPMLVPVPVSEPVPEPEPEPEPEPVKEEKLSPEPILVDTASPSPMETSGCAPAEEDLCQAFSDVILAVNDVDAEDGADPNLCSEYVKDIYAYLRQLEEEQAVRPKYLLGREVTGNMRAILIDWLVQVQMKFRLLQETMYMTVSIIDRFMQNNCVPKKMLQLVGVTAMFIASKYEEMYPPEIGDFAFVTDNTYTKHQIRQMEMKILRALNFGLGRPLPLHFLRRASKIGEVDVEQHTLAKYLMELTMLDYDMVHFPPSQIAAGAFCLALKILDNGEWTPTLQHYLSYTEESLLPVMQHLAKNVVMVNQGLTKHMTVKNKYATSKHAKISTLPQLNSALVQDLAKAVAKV

Compound	IC50 [1] [nM]	IC50 [2] [nM]
CC1(NC(=O)O[C@@H]2CC[C@H](c3cc(Nc4cc(C#N)ccn4)n[nH]3)C2)CC1 [US20250074895, Compound 2]	< 10	< 100
CC1(NC(=O)O[C@@H]2CC[C@H](c3cc(Nc4cnc(OC(F)F)cn4)n[nH]3)C2)CC1 [US20250074895, Compound 8]	< 10	300
CC1(NC(=O)O[C@@H]2CC[C@H](c3cc(Nc4cnc(Cl)cn4)n[nH]3)C2)CC1 [US20250074895, Compound 41]	< 10	> 500
Cc1cncc(Nc2cc([C@H]3CC[C@@H](OC(=O)NC4(C)CC4)C3)[nH]n2)n1 [US20250074895, Compound 7]	< 10	< 100
C[C@@H](O)c1cnc(Nc2cc([C@H]3CC[C@@H](OC(=O)N4CCC4(C)C)C3)[nH]n2)cn1 [US20250074895, Compound 51]	< 10	< 100
CC1(NC(=O)O[C@@H]2CC[C@H](c3cc(Nc4cncc(C5CC5)n4)n[nH]3)C2)CC1 [US20250074895, Compound 29]	< 10	< 100
CNc1nccc(Nc2cc([C@H]3CC[C@@H](OC(=O)NC4(C)CC4)C3)[nH]n2)n1 [US20250074895, Compound 48]	< 10	300

Other lines, results leading:

IC50 [1] [nM]	IC50 [2] [nM]	Compound
< 10	300	CNc1nc(Nc2cc([C@H]3CC[C@@H](OC(=O)NC4(C)CC4)C3)[nH]n2)cnc1C#N [US20250074895, Compound 43]
< 10	> 500	CC1(NC(=O)O[C@@H]2CC[C@H](c3cc(Nc4cnc(S(C)(=O)=O)cn4)n[nH]3)C2)CC1 [US20250074895, Compound 35]
< 10	< 100	COc1nccc(Nc2cc([C@@H]3CC[C@H](OC(=O)NC4(C)CC4)C3)[nH]n2)n1 [US20250074895, Compound 58]
< 10	300	COc1cnc(Nc2cc([C@H]3CC[C@@H](OC(=O)NC4(C)CC4)C3)[nH]n2)cn1 [US20250074895, Compound 28]
< 10	300	C[C@@H](O)c1cnc(Nc2cc([C@H]3CC[C@@H](OC(=O)NC4(C)CC4)C3)[nH]n2)cn1 [US20250074895, Compound 22]
< 10	< 100	COc1nncc(Nc2cc([C@H]3CC[C@@H](OC(=O)NC4(C)CC4)C3)[nH]n2)n1 [US20250074895, Compound 54]
< 10	< 100	CC1(NC(=O)O[C@@H]2CC[C@H](c3cc(Nc4ccnc(C(F)(F)F)n4)n[nH]3)C2)CC1 [US20250074895, Compound 10]

From BindingDB's records for patent US20250074895 (Blueprint Medicines, 2025)
